Holding throughout (format): cell-based
For assay [1], the system named is renal carcinoma cells (786-O). As to the kind of experiment: In vitro potency (CellTiter-Glo, 96 h) on 786-O. The note with it: read-out: 786-O IC50. Summed up: (§1)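 Cells authenticated by STR profiling and used within 2 months of resuscitation are seeded in RPMI 1640 containing 20% FBS for 24 hours; […] dilutions in medium are added and incubation runs 4 days before a luminescence read.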
(In general: Cellular ATP, detected with luciferase, serves as a proxy for viable cell number.)

The test system of a further assay is melanoma cells (A2058). As to the kind of experiment: In vitro potency (CellTiter-Glo, 96 h) on A2058. The note with it: read-out: A2058 IC50. The method, then: (§2) In vitro potency was assessed on multiple cancer cell lines. All cell lines were authenticated by STR profiling at IDEXX Bioresearch and cultured for no more than 2 months after resuscitation. Cells cultured in log-phase growth were seeded for 24 hours in 96-well plates containing […] RPMI 1640 supplemented with 20% FBS. Serial dilutions of antibody-drug conjugates in cell culture media were prepared at 4x working concentrations, and 50 μL of each dilution was added to the 96-well plates. Following addition of test articles, cells were incubated with test articles for 4 days at […]. After 96 hours, growth inhibition was assessed by CellTiterGlo® (Promega, Madison, WI) and luminescence was measured on a plate reader.
(§3) Cell viability was determined by CellTiter-Glo staining after 96h exposure to ADC. ND=Not Determined. In the following tables, “Ex_” refers to a drug linker number. For example, “Ag4-Ex_4a” refers to a conjugate of an Ag4 antibody with drug linker 4a.

The subject of assay [2] is pancreatic cancer cells (BxPC3). Briefly: In vitro potency (CellTiter-Glo, 96 h) on BxPC3. The note with it: read-out: BxPC3 IC50. Put shortly: as §1
The subject of assay [3] is non-small-cell lung cancer cells (Calu1). As to the kind of experiment: In vitro potency (CellTiter-Glo, 96 h) on Calu1. The note with it: read-out: Calu1 IC50. The method, then: as §2, §3
For assay [4], the system named is anaplastic large cell lymphoma cells (DEL). As to the kind of experiment: In vitro potency (CellTiter-Glo, 96 h) on DEL. The settings on record: 96 h, read-out: DEL IC50. Summed up: as §1
In assay [5] the test system is anaplastic large cell lymphoma cells (DELBVR). As to the kind of experiment: In vitro potency (CellTiter-Glo, 96 h) on DELBVR. The note with it: read-out: DELBVR IC50. Put shortly:
as §1

Assay [6] concerns anaplastic large cell lymphoma cells (Karpas299). Briefly: In vitro potency (CellTiter-Glo, 96 h) on Karpas299. The note with it: read-out: Karpas299 IC50. Summed up: as §1
In assay [7] the test system is Hodgkin's lymphoma cells (L540cy). As to the kind of experiment: In vitro potency (CellTiter-Glo, 96 h) on L540cy. The note with it: read-out: L540cy IC50. Summed up: as §1
The nature of assay [8]: In vitro potency (CellTiter-Glo, 96 h) on Ls174T. The note with it: read-out: Ls174T IC50. Summed up: as §1
Assay [9] deals with breast cancer cells (MDA-MB-231). Briefly: In vitro potency (CellTiter-Glo, 96 h) on MDA-MB-231. The note with it: read-out: MDAMB 231 IC50. Put shortly: as §1
Assay [10] deals with acute myeloid leukemia cells (MOLM-13). As to the kind of experiment: In vitro potency (CellTiter-Glo, 96 h) on MOLM-13. The settings on record: read-out: MOLM-13 IC50. Summed up:
as §1

Assay [11] relates to B-lymphocyte cancer cells (SU-DHL4). Briefly: In vitro potency (CellTiter-Glo, 96 h) on SU-DHL4. The settings on record: read-out: SU-DHL-4 IC50. Summed up:
as §1

Where [12] appears, read: Homo sapiens, 786-0, 96 h, CPT free drugs, CellTiter-Glo after 96 h exposure.
The mark [13] stands for this setting: Homo sapiens, A2058, 96 h, CPT free drugs, CellTiter-Glo after 96 h exposure.
Setting [14] is: Homo sapiens, BXPC-3, 96 h, CPT free drugs, CellTiter-Glo after 96 h exposure.
Setting [15] is: Homo sapiens, Calu-1, 96 h, CPT free drugs, CellTiter-Glo after 96 h exposure.
Where [16] appears, read: CPT free drugs, CellTiter-Glo after 96 h exposure.
Where [17] appears, read: 96 h, CPT free drugs, CellTiter-Glo after 96 h exposure.
Setting [18] is: Homo sapiens, KARPAS-299, 96 h, CPT free drugs, CellTiter-Glo after 96 h exposure.
Where [19] appears, read: L540cy, 96 h, CPT free drugs, CellTiter-Glo after 96 h exposure.
The mark [20] stands for this setting: Homo sapiens, LS174T, CPT free drugs, CellTiter-Glo after 96 h exposure.
[21] abbreviates: Homo sapiens, MDA-MB-231, 96 h, CPT free drugs, CellTiter-Glo after 96 h exposure.
Setting [22] is: Homo sapiens, MOLM-13, 96 h, CPT free drugs, CellTiter-Glo after 96 h exposure.
Where [23] appears, read: Homo sapiens, SU-DHL-4, 96 h, CPT free drugs, CellTiter-Glo after 96 h exposure.

pIC50: −log10 of the molar value. Read-outs that look alike come from different tables or passages of the source.

This note sets out measurements from US20230381321A1, “CAMPTOTHECIN CONJUGATES” (priority 2022, published 2023).

A word on the pIC50: it is the IC50 on a negative log10 scale, so that one unit is a factor of ten. Regarding `CC[C@@]1(O)C(=O)OCc2c1cc1n(c2=O)Cc2c-1nc1cc(F)cc(Br)c1c2CN` [Compound 2aw], the negative-log IC50 (pIC50) in [1] (setting [12]) was 7.24; in the assay on melanoma cells (A2058) (setting [13]), 7.74; in assay [2] (setting [14]), 6.83; in [3] (setting [15]) it was 6.57; in assay [4] (setting [16]) it was 7.82; in assay [5] (setting [17]), 7.82. Besides, the pIC50 in assay [6] (setting [18]) is 7.44; in assay [7] (setting [19]), 7.60; in assay [8] (setting [20]), less than 6.00; in assay [9] (setting [21]), 6.34; in assay [10] (setting [22]), 6.70; in assay [11] (setting [23]) it was 7.66.

In the case of `CC[C@@]1(O)C(=O)OCc2c1cc1n(c2=O)Cc2c-1nc1cc(F)c(C)c(-c3cccc(O)c3)c1c2CN` [Compound 6i], the negative logarithm of the IC50 (pIC50) in assay [1] (setting [12]) is 8.30; in the assay on melanoma cells (A2058) (setting [13]), 8.70; in assay [2] (setting [14]), 8.00; in assay [3] (setting [15]), 7.59; in assay [4] (setting [16]), 9.00; in assay [5] (setting [17]), 9.00. For the same compound, the pIC50 was 8.40 in [6] (setting [18]); 8.52 in [7] (setting [19]); 8.00 in [8] (setting [20]); 7.96 in [9] (setting [21]); 8.70 in assay [10] (setting [22]); 8.70 in [11] (setting [23]).

With `CC[C@@]1(O)C(=O)OCc2c1cc1n(c2=O)Cc2c-1nc1cc(F)c(C)c(-c3ccccc3)c1c2CN` [Compound 6j], the pIC50 in assay [1] (setting [12]) was 7.92; with melanoma cells (A2058) (setting [13]), 8.00; in assay [2] (setting [14]), 7.52; in [3] (setting [15]) it was 7.44; in assay [4] (setting [16]), 8.40; in [5] (setting [17]), 8.30. Moreover, the pIC50 was 8.05 in [6] (setting [18]); 8.05 in assay [7] (setting [19]); 7.92 in assay [8] (setting [20]); 6.99 in assay [9] (setting [21]); 7.82 in assay [10] (setting [22]); 7.85 in assay [11] (setting [23]).

As for `CC[C@@]1(O)C(=O)OCc2c1cc1n(c2=O)Cc2c-1nc1cc3c(cc1c2CN)C(C)CO3` (stereo partly drawn) [Compound 11, (5S)-14-(aminomethyl)-5-ethyl-5-hydroxy-18-methyl-7,20-dioxa-11,24 diazahexacyclo[11.11.0.02,11.04,9.015,23.017,21]tetracosa-1(24),2,4(9),13,15(23),16,21-heptaene-6,10-dione], the pIC50 was 8.10 in [1] (setting [12]); 8.52 with melanoma cells (A2058) (setting [13]); 7.92 in [2] (setting [14]); 7.16 in assay [3] (setting [15]); 9.00 in assay [4] (setting [16]); 8.70 in assay [5] (setting [17]). Moreover, the pIC50 in [6] (setting [18]) is 7.85; in [7] (setting [19]) it was 8.40; in assay [8] (setting [20]), less than 6.00; in [9] (setting [16]), 7.39; in assay [10] (setting [16]), 6.97; in assay [11] (setting [23]), 8.40.

For the compound `CC[C@@]1(O)C(=O)OCc2c1cc1n(c2=O)Cc2c-1nc1cc3c(cc1c2CNC1CCOC1)OCO3` (some centres unmarked) [Compound 7ah], the pIC50 is 9.10 in assay [1] (Homo sapiens, 786-0, 96 h); 9.30 in the assay with melanoma cells (A2058) (Homo sapiens, A2058, 96 h); 8.00 in [3] (Homo sapiens, Calu-1, 96 h); 9.70 in [4]; 9.70 in [5] (96 h); 9.00 in assay [6] (Homo sapiens, KARPAS-299, 96 h). Besides, the pIC50 was 9.10 in [7] (L540cy, 96 h); 8.70 in assay [8] (Homo sapiens, LS174T, 96 h); 8.22 in assay [9] (Homo sapiens, MDA-MB-231, 96 h); 9.05 in assay [10] (Homo sapiens, MOLM-13, 96 h); 9.30 in assay [11] (Homo sapiens, SU-DHL-4, 96 h).

On to `CC[C@@]1(O)C(=O)OCc2c1cc1n(c2=O)Cc2c-1nc1cc3c(c(Br)c1c2CN)OCO3` [Compound 5c], for which the negative-log IC50 (pIC50) is 9.00 in assay [1] (Homo sapiens, 786-0, 96 h); 8.30 in the assay on melanoma cells (A2058) (Homo sapiens, A2058, 96 h); 8.10 in assay [2] (Homo sapiens, BXPC-3, 96 h); 8.40 in assay [3] (Homo sapiens, Calu-1, 96 h); 9.52 in [4]; 9.00 in assay [6] (Homo sapiens, KARPAS-299, 96 h). Further, the pIC50 was 9.10 in [7] (L540cy, 96 h); 8.22 in assay [8] (Homo sapiens, LS174T, 96 h); 8.70 in assay [9] (Homo sapiens, MDA-MB-231, 96 h); 8.70 in assay [10] (Homo sapiens, MOLM-13, 96 h); 9.30 in [11] (Homo sapiens, SU-DHL-4, 96 h).

`CC[C@@]1(O)C(=O)OCc2c1cc1n(c2=O)Cc2c-1nc1cc3c(cc1c2CNC(=O)OCc1ccc(NC(=O)[C@H](CCCCN)NC(=O)[C@@H](NC(=O)CCOCCOCCOCCOCCNC(=O)CCN2C(=O)C=CC2=O)C(C)C)cc1)CCO3` [Compound 14, [4-[[(2S)-6-amino-2-[[(2S)-2-[3-[2-[2-[2-[2-[3-(2,5-dioxopyrrol-1-yl)propanoylamino]ethoxy]ethoxy]ethoxy]ethoxy]propanoylamino]-3-methyl-butanoyl]amino]hexanoyl]amino]phenyl]methyl N-[[(5S)-5-ethyl-5-hydroxy-6,10-dioxo-7,20-dioxa-11,24-diazahexacyclo[11.11.0.02,11.04,9.015,23.017,21]tetracosa-1(13),2,4(9),14,16,21,23-heptaen-14-yl]methyl]carbamate;2,2,2-trifluoroacetic acid]: the pIC50 in [1] (setting [16]) was 8.40; in the assay with melanoma cells (A2058) (setting [16]), 8.70; in assay [2] (setting [16]), 8.22; in assay [3] (setting [16]) it was 8.05; in [5] (setting [16]) it was 9.00; in [6] (setting [16]), 8.40. Besides, the pIC50 in [7] (setting [16]) is 8.70; in assay [8] (setting [16]) it was 8.52; in assay [9] (setting [16]) it was 8.30; in assay [10] (setting [16]) it was 7.66; in assay [11] (setting [16]) it was 9.00.

For the compound `CC[C@@]1(O)C(=O)OCc2c1cc1n(c2=O)Cc2c-1nc1cc3c(cc1c2CNC(=O)CO)CCO3` [Compound 15c, (S)-N-((12-ethyl-12-hydroxy-8,11-dioxo-2,3,6,9,11,12-hexahydro-8H-furo [3,2 g]pyrano[3′,4′:6,7]indolizino[1,2-b]quinolin-5-yl)methyl)-2-hydroxyacetamide], the pIC50 is 7.66 in [1] (setting [12]); 8.22 in the assay with melanoma cells (A2058) (setting [13]); 6.74 in assay [3] (setting [15]); 9.00 in assay [4] (setting [16]); 8.52 in assay [5] (setting [17]); 7.66 in [6] (setting [18]). Moreover, the negative logarithm of the IC50 (pIC50) in assay [7] (setting [19]) is 8.00; in assay [8] (setting [20]) it was less than 6.00; in assay [9] (setting [21]), 7.16; in [10] (setting [22]), 7.74; in assay [11] (setting [23]), 8.52.
